Source: ChEMBL document CHEMBL1201862, “PubChem BioAssay data set” (2004)
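Following 48 hours of exposure in 96-well plates, responses at five concentrations were used to interpolate endpoints linearly. At the GI50, growth is halved.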 Calls of active or inactive are those of the source. Cut-off read from the data, not from the text of the source: active = GI50 up to about 1.1 µM and inactive = higher.

What was measured:
Test in all cases: NCI anticancer screen, dose series, 48 h
TK-10 = test system: TK-10
Malme-3M = test system: Malme-3M
HCC 2998 = test system: HCC 2998
OVCAR-3 = test system: OVCAR-3
MCF7 = test system: MCF7
NCI-H23 = test system: NCI-H23
HT-29 = test system: HT-29
NCI-H522 = test system: NCI-H522
DU-145 = test system: DU-145
OVCAR-4 = test system: OVCAR-4
MOLT-4 = test system: MOLT-4
UACC-62 = test system: UACC-62
RXF 393 = test system: RXF 393
KM12 = test system: KM12
SNB-75 = test system: SNB-75
SNB-19 = test system: SNB-19
SF-539 = test system: SF-539
786-0 = test system: 786-0
SF-268 = test system: SF-268
Hs-578T = test system: Hs-578T

Row | SMILES | GI50 (TK-10) | GI50 (Malme-3M) | GI50 (HCC 2998) | GI50 (OVCAR-3) | GI50 (MCF7) | GI50 (NCI-H23) | GI50 (HT-29) | GI50 (NCI-H522) | GI50 (DU-145) | GI50 (OVCAR-4) | GI50 (MOLT-4) | GI50 (UACC-62) | GI50 (RXF 393) | GI50 (KM12) | GI50 (SNB-75) | GI50 (SNB-19) | GI50 (SF-539) | GI50 (786-0) | GI50 (SF-268) | GI50 (Hs-578T)
1 | O=C(O)CCSc1nnc(COc2ccc(Cl)cc2)n1-c1ccccc1 | > 100 µM (inactive) | > 100 µM (inactive) | > 100 µM (inactive) | > 100 µM (inactive) | > 100 µM (inactive) | > 100 µM (inactive) | > 100 µM (inactive) | > 100 µM (inactive) | > 100 µM (inactive) | > 100 µM (inactive) | > 100 µM (inactive) | > 100 µM (inactive) | > 100 µM (inactive) | > 100 µM (inactive) | > 100 µM (inactive) | > 100 µM (inactive) | > 100 µM (inactive) | > 100 µM (inactive) | > 100 µM (inactive) | –
2 | COC1CCC(OC2CC(C3(C)CCC4(CC(O)C(C)C(C(C)/C=C(\C)C(=O)C(C)CC(C)C(=O)O)O4)O3)OC3(OC(C4OC(O)(CO)C(C)CC4C)CC3C)C2C)OC1C (centres undefined) | 0.646 µM (active) | < 0.0205 µM (active) | < 0.0247 µM (active) | < 0.01 µM (active) | < 0.0208 µM (active) | < 0.0345 µM (active) | < 0.0313 µM (active) | < 0.01 µM (active) | < 0.0501 µM (active) | 0.337 µM (active) | < 0.01 µM (active) | 0.132 µM (active) | < 0.01 µM (active) | 0.0753 µM (active) | 0.022 µM (active) | 0.0434 µM (active) | 0.0453 µM (active) | < 0.0341 µM (active) | – | –
3 | C[C@H](C1CC2(C)OC2(C)C(=O)O1)[C@H]1CC[C@H]2[C@@H]3[C@@H]4O[C@@H]4[C@@]4(O)CC=CC(=O)[C@]4(C)[C@H]3CC[C@]12C (some centres undefined) | > 50 µM (inactive) | – | > 50 µM (inactive) | > 50 µM (inactive) | > 50 µM (inactive) | > 50 µM (inactive) | > 50 µM (inactive) | 36.6 µM (inactive) | 16.9 µM (inactive) | > 50 µM (inactive) | > 50 µM (inactive) | > 50 µM (inactive) | 9.71 µM (inactive) | > 50 µM (inactive) | 8.18 µM (inactive) | 29.6 µM (inactive) | – | > 50 µM (inactive) | > 50 µM (inactive) | –
4 | Cc1ccc(S(=O)(=O)Nn2c(O)c(C#N)c(-c3ccc(N(C)C)cc3)c(C#N)c2=O)cc1 | > 50 µM (inactive) | > 50 µM (inactive) | > 50 µM (inactive) | – | > 50 µM (inactive) | – | > 50 µM (inactive) | > 50 µM (inactive) | – | > 50 µM (inactive) | > 50 µM (inactive) | 19.8 µM (inactive) | > 50 µM (inactive) | > 50 µM (inactive) | > 50 µM (inactive) | > 50 µM (inactive) | > 50 µM (inactive) | > 50 µM (inactive) | > 50 µM (inactive) | > 50 µM (inactive)
5 | OC[C@H](O)[C@@H](OCc1ccccc1)[C@H](NCc1ccccc1)c1cccs1 | > 100 µM (inactive) | > 100 µM (inactive) | – | > 100 µM (inactive) | > 100 µM (inactive) | 55.7 µM (inactive) | 60 µM (inactive) | > 100 µM (inactive) | > 100 µM (inactive) | > 100 µM (inactive) | > 100 µM (inactive) | > 100 µM (inactive) | – | > 100 µM (inactive) | 65.3 µM (inactive) | 21.4 µM (inactive) | > 100 µM (inactive) | > 100 µM (inactive) | 4.11 µM (inactive) | –
6 | C[C@@]1(O)CC[C@]2(C)C3CCCC3[C@H]12 (some centres undefined) | > 100 µM (inactive) | > 100 µM (inactive) | > 100 µM (inactive) | > 100 µM (inactive) | – | > 100 µM (inactive) | > 100 µM (inactive) | > 100 µM (inactive) | – | > 100 µM (inactive) | > 100 µM (inactive) | > 100 µM (inactive) | > 100 µM (inactive) | > 100 µM (inactive) | > 100 µM (inactive) | > 100 µM (inactive) | > 100 µM (inactive) | > 100 µM (inactive) | > 100 µM (inactive) | –
7 | CC1=C(C(=O)CC(=O)C(=O)Nc2ccccc2C)Sc2ccccc2N1 | > 100 µM (inactive) | > 100 µM (inactive) | > 74.3 µM (inactive) | > 100 µM (inactive) | – | > 100 µM (inactive) | > 100 µM (inactive) | > 55 µM (inactive) | – | > 100 µM (inactive) | > 100 µM (inactive) | > 100 µM (inactive) | > 57.4 µM (inactive) | > 100 µM (inactive) | > 53.8 µM (inactive) | > 100 µM (inactive) | > 93.3 µM (inactive) | > 45.5 µM (inactive) | > 67 µM (inactive) | –
8 | CCO/C([O-])=C(\C(=O)c1ccc([N+](=O)[O-])cc1)[n+]1c(C)n(C)c2ccccc21 | > 100 µM (inactive) | > 100 µM (inactive) | > 100 µM (inactive) | > 100 µM (inactive) | – | > 100 µM (inactive) | > 100 µM (inactive) | > 100 µM (inactive) | – | > 100 µM (inactive) | > 100 µM (inactive) | > 100 µM (inactive) | > 100 µM (inactive) | > 100 µM (inactive) | > 100 µM (inactive) | > 100 µM (inactive) | > 100 µM (inactive) | > 100 µM (inactive) | > 100 µM (inactive) | –
9 | O=C(NC1C2CC3CC(C2)CC1C3)/C(Cl)=C1/Sc2ccccc2NC1=O (centres undefined) | > 64.6 µM (inactive) | > 100 µM (inactive) | > 80 µM (inactive) | > 100 µM (inactive) | – | > 100 µM (inactive) | > 100 µM (inactive) | > 100 µM (inactive) | – | > 100 µM (inactive) | 16.7 µM (inactive) | > 89.5 µM (inactive) | > 100 µM (inactive) | > 62.8 µM (inactive) | 97.9 µM (inactive) | > 100 µM (inactive) | > 100 µM (inactive) | > 100 µM (inactive) | > 100 µM (inactive) | –
10 | Cc1ccc(/N=C2/S/C(=C3/CCC=C3N3CCOCC3)N(c3ccc(Cl)cc3)/C2=N/c2ccc(C)cc2)cc1 | > 100 µM (inactive) | > 100 µM (inactive) | > 100 µM (inactive) | – | > 100 µM (inactive) | > 100 µM (inactive) | > 100 µM (inactive) | – | – | – | > 100 µM (inactive) | > 100 µM (inactive) | > 100 µM (inactive) | > 100 µM (inactive) | > 100 µM (inactive) | > 100 µM (inactive) | – | > 100 µM (inactive) | – | > 100 µM (inactive)
11 | CC[C@]1(Cc2ccc(OC)c(OC)c2)[C@@H]2C[C@@H](C(=O)OC)ON2O[C@H](OC2CCCC2(c2ccccc2)c2ccccc2)[C@@H]1OC(C)=O (some centres undefined) | > 100 µM (inactive) | – | – | > 100 µM (inactive) | > 100 µM (inactive) | > 100 µM (inactive) | > 100 µM (inactive) | – | > 100 µM (inactive) | – | > 100 µM (inactive) | > 100 µM (inactive) | > 100 µM (inactive) | > 100 µM (inactive) | > 100 µM (inactive) | > 100 µM (inactive) | – | > 100 µM (inactive) | > 100 µM (inactive) | –
